Laboratory results reported in patent publication US9447029B2, “Fluorinated arylalkylaminocarboxamide derivatives” (NEWRON PHARMACEUTICALS S.P.A., priority 2011, dated 2016).
Where a name gives a salt, the structure may show the parent alone.

Tests used:
[1] = test system: TTXs sodium channels (ND7/23 cells); experiment: TTXs-sodium channel influx assay (fluorescence, membrane potential kit); format: cell-based, rat; conditions: veratridine 100 μM
Procedure: ND7/23 rat dorsal root ganglion-derived cell line endogenously expresses a mixed population of TTXs sodium channels (such as Nav1.3, Nav1.2, Nav1.1, Nav1.6). These cells lack of TTXr sodium channels as shown by the absence of their respective transcripts. ND7/23 cells are grown in Dulbecco's Modified Eagle Medium (DMEM, Invitrogen, CA—USA) supplemented with 10% Foetal Bovine Serum (FBS, Invitrogen, CA—USA) and 1 mM sodium piruvate. The cells are seeded at 50,000 cells/well on 96 poly-L-lysine-coated plates and further incubated for 18-24 h before use.
The Membrane Potential Kit Assay (Molecular Devices, CA—USA), based on a negatively charged fluorescent dye able to monitor changes in membrane potential caused by the sodium influx due to the channel opening, is used for the assay.
Cells are incubated with the dye loading for 30 minutes at 25° C. Then, 100 nM of the toxin Anemonia sulcata (used as enhancer of the channel opener response) alone or in the presence of TTX (as reference standard) or test compound are added for further 15 minutes.
The fluorescence (excitation: 530 nm, emission: 565 nm wavelength) is measured before and after (40-45 s) the automated injection of the sodium channel opener veratridine (100 μM) using a Victor plate reader (Perkin Elmer, MA—USA).
The inhibition curves are calculated from 5 concentrations, each in triplicate, and the IC50 determined using a linear regression analysis.
The results, obtained with some compounds which are representative of the entire class of compounds of the invention are reported in Table 1.

[2] = biological target: CYP2D6 (Homo sapiens (Human), UniProt P10635); experiment: Inhibition of Cytochrome P4502D6 (CYP2D6) using Supersomes; format: in vitro ADME; conditions: AMMC substrate, read-out: IC50 (Fluorinated derivative)
Procedure: The inhibition of Cytochrome P4502D6 (CYP2D6) is assessed by performing in vitro inhibition studies using Supersomes, microsomes derived from baculovirus infected insect cells; the baculoviruses are engineered to express one or more drug metabolizing enzyme cDNAs. Supersomes catalyze the same enzymatic reactions as human liver microsome enzymes, but they contain much higher enzyme activity than other microsome sources (Crespi C. L. and Penman B. W., Advances Pharmacology, 43, 171-188 (1997); Crespi C. L. and Miller V. P., Analytical Biochemistry, 248, 188-190 (1997)).
Kits with Supersomes are Supplied by GENTEST (MA, USA).
Test compound is dissolved in DMSO 500× the highest final concentration desired in the IC50 assay. 30 ml of deionized water is pre-warmed to 37° C. and all kit components are placed on ice. For each well of column 1, 149.4 μL of NADPH-Cofactor Mix, (187.5 μl of Cofactors, 150 μl of G6PDH, 100 μl of Control Protein and 14.56 ml of 37° C. water) are added.
In each well from Column 2 to 12, 100 μl of Cofactor/DMSO mix (40 μL DMSO in 9.96 ml of NADPH-Cofactor Mix) are added. To each well of column 1, 0.6 μl of test compound or positive control are added. 50 μl from each well of column 1 are serially diluted to column 8. The extra 50 μl from column 8 are discarded. The plate is covered and pre-incubated at 37° C. for 10 minutes.
Preparation of enzyme/substrate mix: 7.92 ml of pre-warmed deionized water, 75 μl of enzyme, 3 μl of 10 mM AMMC and 2 ml of pre-warmed buffer are mixed.
After the pre-incubation time (10′), 100 μl of enzyme/substrate mix to each well from column 1 to 10 are added. The plate is incubated at 37° C. for 30 minutes. After this time, 75 μl of Stop Reagent to each well are added. For blank controls, 100 μl of enzyme/substrate mix are added to columns 11 and 12.
Plates are read at the Victor plate reader (Perkin Elmer, MA—USA) at 390 nm excitation and 460 nm emission wavelengths.

CYP2D6, sequence (P10635 whole entry): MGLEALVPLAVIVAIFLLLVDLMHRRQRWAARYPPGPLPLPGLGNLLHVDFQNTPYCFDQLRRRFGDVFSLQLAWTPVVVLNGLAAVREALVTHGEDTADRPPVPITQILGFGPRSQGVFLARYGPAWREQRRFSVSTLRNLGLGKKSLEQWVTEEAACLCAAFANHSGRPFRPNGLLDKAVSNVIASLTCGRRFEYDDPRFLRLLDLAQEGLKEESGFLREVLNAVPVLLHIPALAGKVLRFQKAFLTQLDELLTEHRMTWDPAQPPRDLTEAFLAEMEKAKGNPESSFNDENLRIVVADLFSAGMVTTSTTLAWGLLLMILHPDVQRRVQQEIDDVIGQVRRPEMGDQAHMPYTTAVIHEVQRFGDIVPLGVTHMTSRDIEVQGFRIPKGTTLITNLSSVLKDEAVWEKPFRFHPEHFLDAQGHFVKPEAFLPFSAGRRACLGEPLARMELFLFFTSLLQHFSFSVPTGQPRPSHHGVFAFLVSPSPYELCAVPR

CCCCOc1cccc(C(F)(F)CNC(C)C(=O)N(C)C)c1 (centres unmarked) [Example 2-1, 2-[2,2-Difluoro-2-(3-butoxyphenyl)-ethylamino]-N,N-dimethyl-propanamide, hydrochloride]
IC50 [1]: 20 µM
IC50 [2]: > 40 µM
